Assay results as given in patent US20100055071A1, “Anti-Viral Compounds” (priority 2006, published 2010).

Tested on: HCV replication in ET (Huh-lucubineo-ET) cell line
Experiment: Replicon Assay (HCV replicon luciferase, ET cell line)
Type: cell-based
Conditions: Hepatitis C virus; tested at 10 μM; ET (Huh-lucubineo-ET) replicon cells; luciferase activity measured 48-72 hours later; relative to no compound control
Experimental: A cell line, ET (Huh-lucubineo-ET) was used for screening of compounds of the present invention for inhibiting HCV replication. The ET cell line was stably transfected with RNA transcripts harboring a I389luc-ubi-neo/NS3-3′/ET; replicon with firefly luciferase-ubiquitin-neomycin phosphotransferase fusion protein and EMCV-IRES driven NS3-5B polyprotein containing the cell culture adaptive mutations (E1202G; T1280I; K1846T) (Krieger at al, 2001 and unpublished). The ET cells were grown in DMEM (Dulbeco's Modified Eagle's Medium), supplemented with 10% fetal calf serum, 2 mM Glutamine, Penicillin (100 IU/mL)/Streptomycin (100 μg/mL), 1× nonessential amino acids, and 250 μg/mL G418 (“Geneticin”). They were all available through Life Technologies (Bethesda, Md.). The cells were plated at 0.5-1.0×10^4 cells/well in the 96 well plates and incubated for 24 hrs before adding testing compounds. Then the compounds were added to the cells to achieve a final concentration of 0.1 nM to 50 μM and a final DMSO concentration of 0.5%. Luciferase activity were measured 48-72 hours later by adding a lysis buffer and the substrate (Catalog number Glo-lysis buffer E2661 and Bright-Glo luciferase system E2620 Promega, Madison, Wis.). Cells should not be too confluent during the assay. Percent inhibition of replication was plotted relative to no compound control. Under the same condition, cytotoxicity of the compounds was determined using cell proliferation reagent, WST-1 (Roche, Germany). The compounds showing antiviral activities, but no significant cytotoxicities were chosen to determine EC50 and TC50. For these determinations, a 10 point 2-fold serial dilution for each compound was used, which spans a concentration range of 1000 fold. EC50 and similarly TC50 values were calculated by fitting % inhibition at each concentration to the following equation:
% inhibition=100%/[(IC50/[I])^b+1]
where b is Hill's coefficient.
In some preferred embodiments compounds of Formula I will have a % inhibition of at least 20% when tested at 10 μM. In other embodiments the compounds of Formula I will have a % inhibition of at least 50% when tested at 10 μM.

| Structure (SMILES) | inhibition at 10 µM [%] |
| --- | --- |
| O=C(NC1CC1)c1ccc(-c2ccc3nc([C@@H]4Cc5ccccc5N4C(=O)OCc4ccccc4)[nH]c3c2)cc1 [Compound 4010, (S)-2-[6-(4-Cyclopropylcarbamoyl-phenyl)-1H-benzoimidazol-2-yl]-2,3-dihydro-indole-1-carboxylic acid benzyl ester] | 96.8 |
| O=C(Nc1ccc(-c2ccc([C@@H]3CCCN3C(=O)OCc3ccccc3)cc2)cc1)C1CC1 (stereo in doubt) [Compound 4026, 2-[4′-(Cyclopropanecarbonyl-amino)-biphenyl-4-yl]-pyrrolidine-1-carboxylic acid benzyl ester] | 47.6 |
| O=C(NC1CC1)c1ccc(-c2ccc3[nH]c([C@@H]4CSC(c5ccncc5)N4C(=O)OCc4ccccc4)nc3c2)cc1 (stereo in doubt) [Compound 4006, (S)-4-[5-(4-Cyclopropylcarbamoyl-phenyl)-1H-benzoimidazol-2-yl]-2-pyridin-4-yl-thiazolidine-3-carboxylic acid benzyl ester] | 99.8 |
| O=C(Nc1ccc(-c2ccc3nc([C@@H]4CCCN4C(=O)OCc4ccccc4)[nH]c3c2)cc1)C1CC1 [Compound 4058, (S)-2-{6-[4-(Cyclopropanecarbonyl-amino)-phenyl]-1H-benzoimidazol-2-yl}-pyrrolidine-1-carboxylic acid benzyl ester] | 97.9 |
| O=C(Nc1cccc(-c2ccc([C@@H]3CCCN3C(=O)OCc3ccccc3)cc2)c1)C1CC1 (stereo in doubt) [Compound 4009, 2-[3′-(Cyclopropanecarbonyl-amino)-biphenyl-4-yl]-pyrrolidine-1-carboxylic acid benzyl ester] | 31.7 |
| O=C(NCc1ccc(-c2ccc3nc([C@@H]4CCCN4C(=O)OCc4ccccc4)[nH]c3c2)cc1)C1CC1 [Compound 4038, (S)-2-(6-{4-[(Cyclopropanecarbonyl-amino)-methyl]-phenyl}-1H-benzoimidazol-2-yl)-pyrrolidine-1-carboxylic acid benzyl ester] | 97 |
